For orientation: inhibition means the drop in the measured response relative to a control, in per cent. What is called fold induction is the signal under treatment as a multiple of the control signal.

These results are taken from patent US20230183179A1, “NOVEL CELL METABOLISM MODULATING COMPOUNDS AND USES THEREOF” (CRESCENTA BIOSCIENCES, priority 2020, published 2023).

Bounds are passed on as bounds.

For assay [1], the target named is T1, His6 tagged human recombinant FABP4 (Homo sapiens, UniProt P15090).
T1 construct: purchased Cayman Chemicals 10009549
T1 sequence (P15090 whole entry): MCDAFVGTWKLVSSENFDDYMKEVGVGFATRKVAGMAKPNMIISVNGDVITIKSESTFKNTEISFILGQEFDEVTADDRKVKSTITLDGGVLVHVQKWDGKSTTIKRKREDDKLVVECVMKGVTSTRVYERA
Nature of the assay: FABP4 TR-FRET assay: displacement of fluorescent fatty acid BODIPY FL C12. As to conditions: inhibition of BODIPY FL C12 binding to His6-FABP4; 1.2 μL of 1.085 mM compound in DMSO per well; triplicates, mean percent inhibition. Summed up: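 TR-FRET displacement of BODIPY FL C12 from His6-FABP4 bound by Tb-anti-His6 antibody, in Tris pH 7.4 buffer with γ-globulins, NP-40 and DTT; compound stock 1.085 mM in DMSO. Read after 10 min at room temperature as 520/615 nm ratio; mean % inhibition versus DMSO from triplicates.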
In general terms: In TR-FRET formats the signal depends on donor and acceptor labels being close together.

For assay [2], the system named is differentiated 3T3-L1 mouse adipocyte cells. The experiment in a line: Adipocyte glucose consumption in differentiated 3T3-L1 cells (colorimetric glucose assay of the medium). It is filed as cell-based. The settings on record: 3T3-L1, 24 h, compound 10 μM, loss of glucose from culture medium, mean fold change (compound/DMSO). Summed up: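 Differentiated 3T3-L1 mouse adipocytes (rosiglitazone/dexamethasone/IBMX/insulin induction, day 11) treated 24 h with compounds at 10 μM, 0.1% DMSO final. Medium glucose measured colorimetrically; consumption taken as glucose loss from medium versus cell-free control, expressed as mean fold change compound/DMSO ±SD.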

Turning to `CCCCCCc1ccc2nc(N3CCCCC3)cc(-c3ccccc3)c2c1` [6-hexyl-4-phenyl-2-(piperidin-1-yl)quinoline], the inhibition at 1085 µM (stock) in assay [1] worked out at 46.3%. The fold induction at 10 µM in assay [2] was 1.18.
With `CCCCCCc1ccc2nc(N3CCCC3C(=O)O)cc(-c3ccccc3)c2c1` (stereo not shown) [1-(6-hexyl-4-phenylquinolin-2-yl)pyrrolidine-2-carboxylic acid], the inhibition at 1085 µM (stock) in assay [1] amounted to 67.5%. The fold induction at 10 µM in assay [2] was found to be 1.09.
For `CCCCCc1ccc2nc(N(C)CC(=O)O)cc(-c3ccc(F)cc3)c2c1` [2-{[4-(4-fluorophenyl)-6-pentylquinolin-2-yl](methyl)amino}acetic acid], in assay [1], the inhibition at 1085 µM (stock) amounted to 80.9%. In assay [2], the fold induction at 10 µM was 1.34.
On to `CCCCc1ccc2nc(N(C)CC(=O)O)cc(-c3cccc(C(N)=O)c3)c2c1` [2-{[6-butyl-4-(3-carbamoylphenyl)quinolin-2-yl](methyl)amino}acetic acid], for which, in assay [1], the inhibition at 1085 µM (stock) amounted to 26.1%. Also, in assay [2], the fold induction at 10 µM came to 1.13.
On to `CCCCCCc1ccc2nc(N(CC)CC(=O)O)cc(-c3ccc(F)cc3)c2c1` [2-{ethyl[4-(4-fluorophenyl)-6-hexylquinolin-2-yl]amino}acetic acid], for which the inhibition at 1085 µM (stock) in assay [1] came out at 78.3%. Moreover, in assay [2], the fold induction at 10 µM is 1.27.
In the case of `N#Cc1cccc(-c2cc(OCC(=O)O)nc3ccc(Br)cc23)c1` [2-{[6-bromo-4-(3-cyanophenyl)quinolin-2-yl]oxy}acetic acid], the inhibition at 1085 µM (stock) in assay [1] was 19.9%. Moreover, the fold induction at 10 µM in assay [2] came out at 0.99.
In the case of `CCCCCCc1ccc2nc(N(C)CC(=O)O)cc(Oc3cccc(F)c3)c2c1` [2-{[4-(3-fluorophenoxy)-6-hexylquinolin-2-yl](methyl)amino}acetic acid], in assay [1], the inhibition at 1085 µM (stock) was found to be 98.8%. For the same compound, the fold induction at 10 µM in assay [2] came to 1.21.
The like results for `CN(CC(=O)O)c1cc(-c2ccccc2)c2cc(CCc3cnccn3)ccc2n1` [2-[methyl({4-phenyl-6-[2-(pyrazin-2-yl)ethyl]quinolin-2-yl})amino]acetic acid] were, in that order, 4.98% and 1.28.
Take `CCCCCc1ccc2nc(OCC(=O)O)cc(-c3cccc(C#N)c3)c2c1` [2-{[4-(3-cyanophenyl)-6-pentylquinolin-2-yl]oxy}acetic acid]: in assay [1], the inhibition at 1085 µM (stock) was determined as 10.6%. Further, the fold induction at 10 µM in assay [2] came to 1.01.
Take `CCc1ccc2nc(N(C)CC(=O)O)cc(-c3cccc(C#N)c3)c2c1` [2-{[4-(3-cyanophenyl)-6-ethylquinolin-2-yl](methyl)amino}acetic acid]: the inhibition at 1085 µM (stock) in assay [1] was 50.8%. Also, the fold induction at 10 µM in assay [2] came out at 1.16.
As for `CN(CC(=O)O)c1cc(-c2ccccc2)c2cc(Br)ccc2n1` [2-[(6-bromo-4-phenylquinolin-2-yl)(methyl)amino]acetic acid], the inhibition at 1085 µM (stock) in assay [1] came out at 109%. The fold induction at 10 µM in assay [2] was found to be 1.26.
On to `CCCCc1ccc2nc(OCC(=O)O)cc(-c3cccc(C(N)=O)c3)c2c1` [2-{[6-butyl-4-(3-carbamoylphenyl)quinolin-2-yl]oxy}acetic acid], for which the inhibition at 1085 µM (stock) in assay [1] is 54.5%. Besides, the fold induction at 10 µM in assay [2] was 1.15.
The like results for `CCCCc1ccc2nc(N(C)CC(C)C(=O)O)cc(-c3cccnc3)c2c1` (stereo not shown) [3-{[6-butyl-4-(pyridin-3-yl)quinolin-2-yl](methyl)amino}-2-methylpropanoic acid] were, in that order, 46.4% and 1.13.
The like results for `CN(CC(=O)O)c1cc(-c2ccccc2)c2cc(CCc3cncnc3)ccc2n1` [2-[methyl({4-phenyl-6-[2-(pyrimidin-5-yl)ethyl]quinolin-2-yl})amino]acetic acid] were, in that order, 13.2% and 1.22.
Turning to `CCCCc1ccc2nc(N3CCCC(C(=O)O)C3)cc(-c3cccc(C#N)c3)c2c1` (stereo not shown) [1-[6-butyl-4-(3-cyanophenyl)quinolin-2-yl]piperidine-3-carboxylic acid], the inhibition at 1085 µM (stock) in assay [1] turned out to be 24.3%. The fold induction at 10 µM in assay [2] was found to be 0.91.
On to `COc1ccc(CCc2ccc3nc(N(C)CC(=O)O)cc(-c4ccccc4)c3c2)cc1` [2-({6-[2-(4-methoxyphenyl)ethyl]-4-phenylquinolin-2-yl}(methyl)amino)acetic acid], for which, in assay [1], the inhibition at 1085 µM (stock) was determined as 15%. The fold induction at 10 µM in assay [2] was found to be 1.26.
`O=C1NC(=O)C(Cc2cc(-c3ccccc3)c3cc(CCc4ccccc4)ccc3n2)S1` (stereo not shown) [5-{[4-phenyl-6-(2-phenylethyl)quinolin-2-yl]methyl}-1,3-thiazolidine-2,4-dione]: the inhibition at 1085 µM (stock) in assay [1] came to 73.5%. For the same compound, the fold induction at 10 µM in assay [2] stood at 1.45.
In the case of `CCCc1ccc2nc(N(C)CC(=O)O)cc(-c3cccc(C(N)=O)c3)c2c1` [2-{[4-(3-carbamoylphenyl)-6-propylquinolin-2-yl](methyl)amino}acetic acid], the inhibition at 1085 µM (stock) in assay [1] was 48%. For the same compound, the fold induction at 10 µM in assay [2] was found to be 1.07.
With `CN(c1cc(-c2ccccc2)c2cc(CCc3ccccc3)ccc2n1)c1nnn[nH]1` [N-methyl-4-phenyl-6-(2-phenylethyl)-N-(1H-1,2,3,4-tetrazol-5-yl)quinolin-2-amine], in assay [1], the inhibition at 1085 µM (stock) stood at 76.3%. In addition, in assay [2], the fold induction at 10 µM was found to be 1.17.
For the compound `CN(CC(=O)O)c1cc(-c2ccncc2)c2cc(CCc3cccnc3)ccc2n1` [2-[methyl({6-[2-(pyridin-3-yl)ethyl]-4-(pyridin-4-yl)quinolin-2-yl})amino]acetic acid], in assay [1], the inhibition at 1085 µM (stock) amounted to 24.6%. Also, in assay [2], the fold induction at 10 µM worked out at 1.06.
As for `CCCCCCc1ccc2nc(N(C)CC(=O)O)cc(-c3ccc(F)cc3)c2c1` [2-{[4-(4-fluorophenyl)-6-hexylquinolin-2-yl](methyl)amino}acetic acid], in assay [1], the inhibition at 1085 µM (stock) was 81%. Moreover, in assay [2], the fold induction at 10 µM stood at 1.3.
On to `CCCc1ccc2nc(OCC(=O)O)cc(-c3cccc(C(N)=O)c3)c2c1` [2-{[4-(3-carbamoylphenyl)-6-propylquinolin-2-yl]oxy}acetic acid], for which, in assay [1], the inhibition at 1085 µM (stock) came to 42.9%. Further, in assay [2], the fold induction at 10 µM amounted to 1.
The matching figures for `Cc1ccccc1CCc1ccc2nc(N(C)CC(=O)O)cc(-c3ccccc3)c2c1` [2-[methyl({6-[2-(2-methylphenyl)ethyl]-4-phenylquinolin-2-yl})amino]acetic acid]: 38.2% and 1.4.
Consider `CCCCCCc1ccc2nc(N(C)CC(C)C(=O)O)cc(-c3ccc(F)cc3)c2c1` (stereo not shown) [3-{[4-(4-fluorophenyl)-6-hexylquinolin-2-yl](methyl)amino}-2-methylpropanoic acid], for which the inhibition at 1085 µM (stock) in assay [1] was found to be 92.3%. For the same compound, in assay [2], the fold induction at 10 µM amounted to 1.31.
For `CCCc1ccc2nc(OCC(=O)O)cc(-c3ccccc3)c2c1` [2-[(4-phenyl-6-propylquinolin-2-yl)oxy]acetic acid], the inhibition at 1085 µM (stock) in assay [1] stood at 33.8%. Also, the fold induction at 10 µM in assay [2] stood at 0.99.
Regarding `CN(CC(=O)O)c1cc(-c2ccccc2)c2cc(CCc3cccnc3)ccc2n1` [2-[methyl({4-phenyl-6-[2-(pyridin-3-yl)ethyl]quinolin-2-yl})amino]acetic acid], in assay [1], the inhibition at 1085 µM (stock) came to 32%. For the same compound, the fold induction at 10 µM in assay [2] worked out at 1.41.
Regarding `CCCCCCCCc1ccc2nc(N(C)CC(=O)O)cc(Oc3ccc(F)cc3)c2c1` [2-{[4-(4-fluorophenoxy)-6-octylquinolin-2-yl](methyl)amino}acetic acid], in assay [1], the inhibition at 1085 µM (stock) was 78.7%. Also, the fold induction at 10 µM in assay [2] was determined as 1.41.
As to `CN(CC(=O)O)c1cc(-c2ccccc2)c2cc(CCN3CCCCC3)ccc2n1` [2-[methyl({4-phenyl-6-[2-(piperidin-1-yl)ethyl]quinolin-2-yl})amino]acetic acid], the inhibition at 1085 µM (stock) in assay [1] is below 0%. For the same compound, the fold induction at 10 µM in assay [2] stood at 0.96.
Consider `CCCCc1ccc2nc(N(C)CC(C)C(=O)O)cc(-c3ccccc3)c2c1` (stereo not shown) [3-[(6-butyl-4-phenylquinolin-2-yl)(methyl)amino]-2-methylpropanoic acid], for which the inhibition at 1085 µM (stock) in assay [1] was 74.7%. For the same compound, in assay [2], the fold induction at 10 µM stood at 1.34.
With `CCCCCOc1ccc2nc(N(C)CC(=O)O)cc(-c3ccccc3)c2c1` [2-{methyl [6-(pentyloxy)-4-phenylquinolin-2-yl]amino}acetic acid], the inhibition at 1085 µM (stock) in assay [1] came out at 102%. Also, the fold induction at 10 µM in assay [2] turned out to be 1.27.
As to `CCCCc1ccc2nc(N(C)CC(=O)O)cc(-c3cccc(O)c3)c2c1` [2-{[6-butyl-4-(3-hydroxyphenyl)quinolin-2-yl](methyl)amino}acetic acid], the inhibition at 1085 µM (stock) in assay [1] was 83.8%. Moreover, the fold induction at 10 µM in assay [2] was 1.28.
On to `CCCCCCc1ccc2nc(OCC(=O)O)cc(-c3cccc(C#N)c3)c2c1` [2-{[4-(3-cyanophenyl)-6-hexylquinolin-2-yl]oxy}acetic acid], for which, in assay [1], the inhibition at 1085 µM (stock) amounted to 39.4%. Also, the fold induction at 10 µM in assay [2] turned out to be 1.02.
The like results for `O=C(O)C1CCCN1c1cc(-c2ccccc2)c2cc(Cl)ccc2n1` (stereo not shown) [1-(6-chloro-4-phenylquinolin-2-yl)pyrrolidine-2-carboxylic acid] were, in that order, 105% and 1.08.
`CCCCCCCCc1ccc2nc(N(C)CC(=O)O)cc(-c3ccc(F)cc3)c2c1` [2-{[4-(4-fluorophenyl)-6-octylquinolin-2-yl](methyl)amino}acetic acid]: the inhibition at 1085 µM (stock) in assay [1] turned out to be 53.8%. Besides, in assay [2], the fold induction at 10 µM is 1.28.
The matching figures for `CCCCCCCc1ccc2nc(N(C)CC(=O)O)cc(-c3ccc(F)cc3)c2c1` [2-([4-(4-fluorophenyl)-6-heptylquinolin-2-yl](methyl)amino}acetic acid]: 75.6% and 1.25.
